Data taken from patent publication US8349826B2, “Oxazolidinone derivatives” (Actelion Pharmaceuticals Ltd., priority 2008, dated 2013).
Values after ≈ are worked out from the molar mass of the structure shown.

test system: Moraxella catarrhalis A894; assay: MIC by broth microdilution (cation-adjusted Mueller-Hinton Broth, CLSI M7-A7); format: cell-based
Description: Minimal inhibitory concentrations (MICS; mg/l) were determined in cation-adjusted Mueller-Hinton Broth by a microdilution procedure following the description given in “Procedures for Dilution Antimicrobial Susceptibility Tests for Bacteria that Grow Aerobically”, Approved standard, 7th ed., Clinical and Laboratory Standards Institute (CLSI) Document M7-A7, Wayne, Pa., USA, 2006. All Example compounds were tested against several Gram positive and Gram negative bacteria such as S. aureus, E. faecalis, S. pneumoniae, M. catarrhalis, A. baumanii, E. coli or P. aeruginosa.

| MIC | SMILES | MIC Moraxella catarrhalis A894 |
| --- | --- | --- |
| ≤ 0.031 µg/mL | O=C1O[C@H](CNCCCn2c(=O)ccc3ccc(Br)cc32)CN1c1ccc2c(c1)OCCO2 [Example 4, 7-bromo-1-(3-{[(R)-3-(2,3-dihydro-benzo[1,4]dioxin-6-yl)-2-oxo-oxazolidin-5-ylmethyl]-amino}-propyl)-1H-quinolin-2-one] |  |
| 0.25 µg/mL (≈ 0.473 µM) | O=C(CCn1c(=O)ccc2ccc(Br)cc21)NC[C@@H]1CN(c2ccc3c(c2)OCCO3)C(=O)O1 [Example 8, 3-(7-bromo-2-oxo-2H-quinolin-1-yl)-N-[(R)-3-(2,3-dihydro-benzo[1,4]dioxin-6-yl)-2-oxo-oxazolidin-5-ylmethyl]-propionamide] |  |
| ≤ 0.031 µg/mL | COc1ccc2ccc(=O)n(CCCNC[C@@H]3CN(c4ccc5c(c4)NC(=O)CS5)C(=O)O3)c2c1 [Example 1, 6-((R)-5-{[3-(7-methoxy-2-oxo-2H-quinolin-1-yl)-propylamino]-methyl}-2-oxo-oxazolidin-3-yl)-4H-benzo[1,4]thiazin-3-one] |  |
| 0.25 µg/mL (≈ 0.517 µM) | COc1ccc2ncc(=O)n(C[C@H](O)CNC[C@@H]3CN(c4ccc5c(c4)OCCO5)C(=O)O3)c2n1 [Example 26, 4-((R)-3-{[(R)-3-(2,3-dihydro-benzo[1,4]dioxin-6-yl)-2-oxo-oxazolidin-5-ylmethyl]-amino}-2-hydroxy-propyl)-6-methoxy-4H-pyrido[2,3-b]pyrazin-3-one] |  |

Second part, the compound before the results:

| SMILES | MIC | MIC Moraxella catarrhalis A894 |
| --- | --- | --- |
| CCOc1ccc(N2C[C@@H](CCN3CC(n4c(=O)cnc5ccc(OC)nc54)C3)OC2=O)cc1 [Example 34, 4-(1-{2-[(R)-3-(4-ethoxy-phenyl)-2-oxo-oxazolidin-5-yl]-ethyl}-azetidin-3-yl)-6-methoxy-4H-pyrido[2,3-b]pyrazin-3-one] | 8 µg/mL (≈ 17.2 µM) |  |
| COc1ccc2ncc(=O)n(C[C@H](O)CNC[C@@H]3CN(c4ccc5c(c4)NC(=O)CO5)C(=O)O3)c2n1 [Example 27] |  | <=0.031 mg/l |
| COc1ccc2ncc(=O)n(CCNCCC3CN(c4ccc5c(n4)NC(=O)CO5)C(=O)O3)c2n1 (racemic) [Example 33, rac-6-(5-{2-[2-(6-methoxy-3-oxo-3H-pyrido[2,3-b]pyrazin-4-yl)-ethylamino]-ethyl}-2-oxo-oxazolidin-3-yl)-4H-pyrido[3,2-b][1,4]oxazin-3-one] | ≤ 0.031 µg/mL |  |
